The source of these data is patent US20030113267A1, “Colon contrast enhanced imaging” (priority 1999, published 2003).

Bounds are passed on as bounds.

The nature of series [1]: 3D angiographic MRI colonography in healthy volunteers after intravenous injection. The class given is in vivo, human. An excerpt: Description of method of acquisition of MRI images of the luminal part of the colon using the three-dimensional angiography technique in healthy volunteers after intravenous injection of MultiHance™ (Gd-BOPTA meglumine salt).
A three-dimensional angiographic imaging technique was used because it provides advantageous visualisation of large regions of the anatomy, especially when associated with administration of contrast agents which are particularly effective in reducing the T1 relaxation times in standard MRI investigations.
In the trial conducted, the increased contrast in the hepatobiliary system and the gastrointestinal system was obtained with this kind of diagnostic technique, which produced up to 42 images of a three-dimensional volume measuring 40×32×12 cm in a single breath-hold.
(§1) The trial was conducted in six healthy volunteers aged between 22 and 29 years. The contrast agent used was Gd-BOPTA meglumine salt (MultiHance™), administered intravenously at a dose of 0.1 mmol/kg of body weight. The successive recording of images of the abdomen was performed 1, 12, 24, 36, 48, 70 and 105 hours after administration of the agent using the following 3D angio-sequence: 3D FLASH; TR 4.6 ms; TE 1.8 ms; α 50° C.; rect. FOV 390 mm (6/8); Ma: 215×512; acq 28 s; slab thickness 120 mm; 42 sections. Three volunteers were re-tested 14 days after administration of the agent.
(§2) T1-weighted axial images of the liver and abdomen were recorded in addition to the 3D angio-sequences referred to above.
(§3) The visualisation procedure was conducted with an MRI scanner operating at 1.5 Tesla (Magneton Vision Plus, Siemens Medical Systems, Erlangen, Germany) equipped with a phased array body coil.
The images were processed with standard MIP software on a dedicated 3D MR workstation (Virtuoso, Siemens Medical System).
No preparation, medication or joint administration of other drugs or other contrast media was performed on the volunteers studied.

The conditions of series [2]: cited from earlier work.
Series [3] can be described thus: MRI signal intensity over time in gall bladder, healthy volunteers. The class given is in vivo, human. The procedure: as §1, §2, §3
(§4) Before performing colonography, it was possible to investigate liver function by recording the signal intensity in the liver parenchyma and gall bladder in the first few hours after administration of the contrast agent. […] This seems to be the ideal period for recording three-dimensional MRI colonography.

The conditions of series [4]: in man; cited from earlier work.
Series [5] can be described thus: MRI signal intensity over time in liver parenchyma, healthy volunteers. The class given is in vivo, human. As to conditions: average of six healthy volunteers, 0.1 mmol/kg i.v., FIG. 1. The procedure: as §1, §2, §3, §4

Turning to `CNC[C@H](O)[C@@H](O)[C@H](O)[C@H](O)CO.CNC[C@H](O)[C@@H](O)[C@H](O)[C@H](O)CO.O=C([O-])CN(CCN(CC(=O)[O-])CC(=O)O)CCN(CC(=O)O)C(COCc1ccccc1)C(=O)[O-].[Gd+3]` (centres unmarked) [MultiHance, gadobenate dimeglumine], the “time after which a partial increase of intraluminal signal was still detectable” value in series [1] (0.1 mmol/kg i.v.) is listed as 8 days. In addition, in series [1] (0.1 mmol/kg i.v., faeces present, no preparation), the “homogeneity of contrast in the lumen” value is given as “homogenous contrast in the lumen”. Also, in series [1] (24 hours after injection of 0.1 mmol/kg BW, no bowel preparation, FIG. 2), the “signal in the colon, 3D MR colonography” value was “Homogenous signal can be seen in all segments of the colon”. Moreover, in series [1] (all six healthy volunteers, 0.1 mmol/kg i.v., no bowel preparation), the “time to intense increase in intraluminal contrast after administration” value was at most 24 h. Moreover, in series [1] (in some patients, 0.1 mmol/kg i.v.), the “time after administration at which an intense intraluminal signal was still detected in the colon” value was at most 100 h. In addition, the “intraluminal contrast after intravenous administration” value in series [1] (intravenous administration, contrast recorded in the colon) is recorded as “substantial increase in intraluminal contrast”. Moreover, the solubility in water entry in series [2] is listed as “soluble in water”. Besides, the “enhancement within the gallbladder” value in series [3] (24 hours after injection of 0.1 mmol/kg BW, FIG. 2) is “still intense enhancement”. In addition, in series [3] (average of six healthy volunteers, 0.1 mmol/kg i.v., FIG. 1), the “half-life of signal intensity in gall bladder” value is 15 h. For the same compound, the “proportion excreted by the biliary route” value in series [4] is listed as 2-4%. Besides, the “time for signal intensity to be halved in liver parenchyma” value in series [5] is at most 10 h.
